From the NIST ThermoML archive (doi:10.1021/acs.jced.6b00026)

Assay: xn = mol fraction of the nth substance listed
Settings: Fluid (supercritical or subcritical phases), Buoyancy - hydrostatic balance with magnetic suspension - one sinker

CCCCCCCCCCC [undecane] + O=C=O
Settings	mass density [kg/m3]
313.18 K, 8001 kPa, x2 = 0.6797	776.08
313.18 K, 13999 kPa, x2 = 0.2483	745.92
313.18 K, 16002 kPa, x2 = 0.6797	808.24
313.18 K, 18070 kPa, x2 = 0.8874	825.37
313.18 K, 18977 kPa, x2 = 0.2483	749.97
313.19 K, 16008 kPa, x2 = 0.2483	747.58
313.19 K, 19014 kPa, x2 = 0.6797	817.41
313.2 K, 10002 kPa, x2 = 0.6797	785.54
313.2 K, 12013 kPa, x2 = 0.2483	744.22
313.21 K, 8004 kPa, x2 = 0.2483	740.68
313.21 K, 10007 kPa, x2 = 0.2483	742.45
313.21 K, 12003 kPa, x2 = 0.6797	793.85
313.21 K, 13997 kPa, x2 = 0.6797	801.3
313.21 K, 18002 kPa, x2 = 0.2483	749.16
313.22 K, 19000 kPa, x2 = 0.4641	772.52
313.23 K, 16004 kPa, x2 = 0.4641	769.05
313.23 K, 17996 kPa, x2 = 0.4641	771.37
313.24 K, 10003 kPa, x2 = 0.4641	761.59
313.24 K, 12000 kPa, x2 = 0.4641	764.15
313.24 K, 18003 kPa, x2 = 0.6797	814.33
313.25 K, 7997 kPa, x2 = 0.4641	758.91
313.26 K, 10039 kPa, x2 = 0.8874	773.99
313.26 K, 11990 kPa, x2 = 0.8874	789.91
313.26 K, 14074 kPa, x2 = 0.8874	803.72
313.27 K, 16066 kPa, x2 = 0.8874	815
313.27 K, 19015 kPa, x2 = 0.8874	829.45
313.29 K, 14002 kPa, x2 = 0.4641	766.59
323.11 K, 18008 kPa, x2 = 0.6797	792.77
323.14 K, 11997 kPa, x2 = 0.2483	736.47
323.15 K, 16006 kPa, x2 = 0.4641	758.48
323.17 K, 7997 kPa, x2 = 0.4641	747.66
323.17 K, 14005 kPa, x2 = 0.4641	755.92
323.17 K, 19002 kPa, x2 = 0.6797	795.98
323.19 K, 9992 kPa, x2 = 0.6797	757.97
323.2 K, 9999 kPa, x2 = 0.2483	734.59
323.2 K, 11998 kPa, x2 = 0.6797	768.5
323.2 K, 16011 kPa, x2 = 0.2483	739.99
323.2 K, 18000 kPa, x2 = 0.2483	741.72
323.23 K, 14011 kPa, x2 = 0.2483	738.22
323.23 K, 19001 kPa, x2 = 0.2483	742.54
323.25 K, 16042 kPa, x2 = 0.6797	785.42
323.25 K, 19040 kPa, x2 = 0.8874	798.97
323.26 K, 10008 kPa, x2 = 0.4641	750.42
323.26 K, 12004 kPa, x2 = 0.4641	753.18
323.26 K, 19006 kPa, x2 = 0.4641	762.09
323.27 K, 8000 kPa, x2 = 0.2483	732.65
323.27 K, 18003 kPa, x2 = 0.4641	760.86
323.3 K, 14004 kPa, x2 = 0.6797	777.17
323.31 K, 13971 kPa, x2 = 0.8874	764.29
323.31 K, 18051 kPa, x2 = 0.8874	793.06
323.32 K, 11984 kPa, x2 = 0.8874	745.06
323.32 K, 16015 kPa, x2 = 0.8874	779.89
333.05 K, 15991 kPa, x2 = 0.2483	732.43
333.06 K, 8008 kPa, x2 = 0.2483	724.69
333.06 K, 18013 kPa, x2 = 0.2483	734.27
333.07 K, 18027 kPa, x2 = 0.6797	770.02
333.07 K, 19007 kPa, x2 = 0.2483	735.15
333.09 K, 18042 kPa, x2 = 0.8874	758.98
333.11 K, 12010 kPa, x2 = 0.8874	701.45
333.14 K, 10000 kPa, x2 = 0.2483	726.64
333.14 K, 11987 kPa, x2 = 0.6797	745.9
333.14 K, 18003 kPa, x2 = 0.4641	751.23
333.14 K, 19000 kPa, x2 = 0.6797	773.23
333.16 K, 10004 kPa, x2 = 0.4641	739.87
333.16 K, 11998 kPa, x2 = 0.4641	742.85
333.16 K, 12018 kPa, x2 = 0.2483	728.6
333.16 K, 16006 kPa, x2 = 0.4641	748.54
333.16 K, 19039 kPa, x2 = 0.8874	765.91
333.17 K, 8004 kPa, x2 = 0.4641	736.7
333.17 K, 13998 kPa, x2 = 0.6797	754.83
333.17 K, 14005 kPa, x2 = 0.8874	721.01
333.17 K, 14013 kPa, x2 = 0.2483	730.5
333.19 K, 13997 kPa, x2 = 0.4641	745.71
333.19 K, 16015 kPa, x2 = 0.8874	741.91
333.21 K, 19000 kPa, x2 = 0.4641	752.46
333.23 K, 16000 kPa, x2 = 0.6797	762.53
343.19 K, 12000 kPa, x2 = 0.2483	720.79
343.2 K, 14004 kPa, x2 = 0.2483	722.81
343.2 K, 17005 kPa, x2 = 0.2483	725.76
343.21 K, 11985 kPa, x2 = 0.6797	729.1
343.24 K, 10010 kPa, x2 = 0.2483	718.69
343.25 K, 13002 kPa, x2 = 0.6797	731.82
343.25 K, 16001 kPa, x2 = 0.4641	738.42
343.26 K, 14997 kPa, x2 = 0.2483	723.76
343.26 K, 17011 kPa, x2 = 0.4641	739.9
343.27 K, 13999 kPa, x2 = 0.6797	736.08
343.27 K, 14997 kPa, x2 = 0.4641	736.9
343.27 K, 17005 kPa, x2 = 0.6797	747.33
343.28 K, 14027 kPa, x2 = 0.8874	673.56
343.28 K, 14995 kPa, x2 = 0.6797	739.94
343.28 K, 15997 kPa, x2 = 0.6797	743.79
343.28 K, 18018 kPa, x2 = 0.6797	750.83
343.3 K, 11002 kPa, x2 = 0.2483	719.69
343.3 K, 11003 kPa, x2 = 0.4641	730.57
343.3 K, 12002 kPa, x2 = 0.4641	732.18
343.3 K, 16007 kPa, x2 = 0.2483	724.72
343.3 K, 18033 kPa, x2 = 0.8874	723.56
343.31 K, 8003 kPa, x2 = 0.4641	725.39
343.31 K, 13003 kPa, x2 = 0.4641	733.77
343.32 K, 7999 kPa, x2 = 0.2483	716.46
343.32 K, 17016 kPa, x2 = 0.8874	713.66
343.32 K, 19002 kPa, x2 = 0.4641	742.71
343.34 K, 9998 kPa, x2 = 0.4641	728.83
343.34 K, 16020 kPa, x2 = 0.8874	702.38
343.34 K, 19012 kPa, x2 = 0.2483	727.57
343.35 K, 15016 kPa, x2 = 0.8874	689.29
343.35 K, 17999 kPa, x2 = 0.4641	741.25
343.37 K, 19004 kPa, x2 = 0.8874	731.75
343.37 K, 19021 kPa, x2 = 0.6797	753.8
343.39 K, 13010 kPa, x2 = 0.2483	721.68
343.4 K, 18008 kPa, x2 = 0.2483	726.58
343.41 K, 14002 kPa, x2 = 0.4641	735.22
353.08 K, 11003 kPa, x2 = 0.2483	711.86
353.09 K, 11995 kPa, x2 = 0.4641	721.32
353.12 K, 10003 kPa, x2 = 0.2483	710.71
353.13 K, 13017 kPa, x2 = 0.2483	714.01
353.13 K, 17994 kPa, x2 = 0.4641	731.12
353.14 K, 16002 kPa, x2 = 0.2483	717.14
353.19 K, 14997 kPa, x2 = 0.4641	726.33
353.23 K, 14005 kPa, x2 = 0.4641	724.68
353.31 K, 8017 kPa, x2 = 0.4641	712.03
353.31 K, 16999 kPa, x2 = 0.2483	718.15
353.33 K, 9996 kPa, x2 = 0.4641	717.59
353.33 K, 18011 kPa, x2 = 0.2483	719.15
353.34 K, 14014 kPa, x2 = 0.2483	715.02
353.34 K, 16078 kPa, x2 = 0.6797	710.53
353.35 K, 14995 kPa, x2 = 0.2483	716.05
353.38 K, 19001 kPa, x2 = 0.4641	732.5
353.39 K, 13004 kPa, x2 = 0.4641	722.88
353.4 K, 7998 kPa, x2 = 0.2483	708.29
353.4 K, 16003 kPa, x2 = 0.4641	727.85
353.4 K, 19017 kPa, x2 = 0.2483	720.08
353.41 K, 11004 kPa, x2 = 0.4641	719.34
353.42 K, 17964 kPa, x2 = 0.6797	722.19
353.43 K, 12003 kPa, x2 = 0.2483	712.78
353.43 K, 15953 kPa, x2 = 0.8874	651.24
353.43 K, 18953 kPa, x2 = 0.8874	692.79
353.43 K, 19052 kPa, x2 = 0.8874	691.56
353.44 K, 15006 kPa, x2 = 0.6797	702.5
353.44 K, 16998 kPa, x2 = 0.4641	729.38
353.44 K, 17006 kPa, x2 = 0.6797	716.04
353.44 K, 19016 kPa, x2 = 0.6797	727.96
353.45 K, 17976 kPa, x2 = 0.8874	681.1
353.46 K, 16003 kPa, x2 = 0.8874	649.3
353.46 K, 17018 kPa, x2 = 0.8874	665.72
353.52 K, 17018 kPa, x2 = 0.8874	668.1
353.52 K, 18000 kPa, x2 = 0.8874	678.79
